Assay results reported in ChEMBL document CHEMBL2440080, “Synthesis and biological evaluation of novel acylhydrazone derivatives as potential antitumor agents” (Bioorg Med Chem, 2013).

Assays:
SF-295 = test: Cytotoxicity against human SF295 cells after 48 hrs by sulforhodamine B assay; type: functional; details: SF-295, 48 h
UACC-257 = test: Cytotoxicity against human UACC257 cells after 48 hrs by sulforhodamine B assay; type: functional; details: UACC-257, 48 h
LOX IMVI = test: Cytotoxicity against human LOXIMVI cells after 48 hrs by sulforhodamine B assay; type: functional
SN12C = test: Cytotoxicity against human SN12C cells after 48 hrs by sulforhodamine B assay; type: functional
HCT-15 = test: Cytotoxicity against human HCT15 cells after 48 hrs by sulforhodamine B assay; type: functional; details: HCT-15, 48 h
MDA-MB-231 = test: Cytotoxicity against human MDA-MB-231 cells after 48 hrs by sulforhodamine B assay; type: functional; details: MDA-MB-231, 48 h
HOP-92 = test: Cytotoxicity against human HOP92 cells after 48 hrs by sulforhodamine B assay; type: functional; details: HOP-92, 48 h
SK-OV-3 = test: Cytotoxicity against human SKOV3 cells after 48 hrs by sulforhodamine B assay; type: functional; details: SK-OV-3, 48 h
UO-31 = test: Cytotoxicity against human UO31 cells after 48 hrs by sulforhodamine B assay; type: functional; details: UO-31, 48 h
[1] = Cytotoxicity against human Hs 578T cells after 48 hrs by sulforhodamine B assay; type: functional
SNB-75 = test: Cytotoxicity against human SNB75 cells after 48 hrs by sulforhodamine B assay; type: functional; details: SNB-75, 48 h
IGROV-1 = test: Cytotoxicity against human IGROV1 cells after 48 hrs by sulforhodamine B assay; type: functional; details: IGROV-1, 48 h
DU-145 = test: Cytotoxicity against human DU145 cells after 48 hrs by sulforhodamine B assay; type: functional; details: DU-145, 48 h
TK-10 = test: Cytotoxicity against human TK10 cells after 48 hrs by sulforhodamine B assay; type: functional; details: TK-10, 48 h
RXF 393 = test: Cytotoxicity against human RXF393 cells after 48 hrs by sulforhodamine B assay; type: functional; details: RXF 393, 48 h
NCI-H322M = test: Cytotoxicity against human NCI-H322M cells after 48 hrs by sulforhodamine B assay; type: functional
SNB-19 = test: Cytotoxicity against human SNB19 cells after 48 hrs by sulforhodamine B assay; type: functional; details: SNB-19, 48 h
ACHN = test: Cytotoxicity against human ACHN cells after 48 hrs by sulforhodamine B assay; type: functional
SK-MEL-5 = test: Cytotoxicity against human SK-MEL-5 cells after 48 hrs by sulforhodamine B assay; type: functional; details: SK-MEL-5, 48 h
M14 = test: Cytotoxicity against human M14 cells after 48 hrs by sulforhodamine B assay; type: functional; details: M14, 48 h
UACC-62 = test: Cytotoxicity against human UACC62 cells after 48 hrs by sulforhodamine B assay; type: functional; details: UACC-62, 48 h
U-251 = test: Cytotoxicity against human U251 cells after 48 hrs by sulforhodamine B assay; type: functional; details: U-251, 48 h
MCF7 = test: Cytotoxicity against human MCF7 cells after 48 hrs by sulforhodamine B assay; type: functional; details: MCF7, 48 h
MDA-MB-435 = test: Cytotoxicity against human MDA-MB-435 cells after 48 hrs by sulforhodamine B assay; type: functional; details: MDA-MB-435, 48 h
OVCAR-8 = test: Cytotoxicity against human OVCAR8 cells after 48 hrs by sulforhodamine B assay; type: functional; details: OVCAR-8, 48 h
RPMI-8226 = test: Cytotoxicity against human RPMI8226 cells after 48 hrs by sulforhodamine B assay; type: functional; details: RPMI-8226, 48 h
NCI-H460 = test: Cytotoxicity against human NCI-H460 cells after 48 hrs by sulforhodamine B assay; type: functional; details: NCI-H460, 48 h
Mus musculus = test: Toxicity in athymic nude mouse assessed as survival at 400 mg/kg, ip measured after 2 weeks; type: organism-based; set-up: dose 400 mg/kg, route intraperitoneal; details: in vivo, 336 h
786-0 = test: Cytotoxicity against human 786-0 cells after 48 hrs by sulforhodamine B assay; type: functional; details: 786-0, 48 h
NCI-H522 = test: Cytotoxicity against human NCI-H522 cells after 48 hrs by sulforhodamine B assay; type: functional; details: NCI-H522, 48 h
HCC 2998 = test: Cytotoxicity against human HCC2998 cells after 48 hrs by sulforhodamine B assay; type: functional; details: HCC 2998, 48 h
BT-549 = test: Cytotoxicity against human BT549 cells after 48 hrs by sulforhodamine B assay; type: functional; details: BT-549, 48 h
PC-3 = test: Cytotoxicity against human PC3 cells after 48 hrs by sulforhodamine B assay; type: functional; details: PC-3, 48 h
[2] = Cytotoxicity against human EKVX cells after 48 hrs by sulforhodamine B assay; type: functional
COLO 205 = test: Cytotoxicity against human COLO205 cells after 48 hrs by sulforhodamine B assay; type: functional; details: COLO 205, 48 h
HCT-116 = test: Cytotoxicity against human HCT116 cells after 48 hrs by sulforhodamine B assay; type: functional; details: HCT-116, 48 h
NCI-H226 = test: Cytotoxicity against human NCI-H226 cells after 48 hrs by sulforhodamine B assay; type: functional; details: NCI-H226, 48 h
NCI/ADR-RES = test: Cytotoxicity against human NCI/ADR-RES cells after 48 hrs by sulforhodamine B assay; type: functional
CAKI-1 = test: Cytotoxicity against human CAKI-1 cells after 48 hrs by sulforhodamine B assay; type: functional; details: CAKI-1, 48 h
OVCAR-3 = test: Cytotoxicity against human OVCAR3 cells after 48 hrs by sulforhodamine B assay; type: functional; details: OVCAR-3, 48 h
SF-268 = test: Cytotoxicity against human SF268 cells after 48 hrs by sulforhodamine B assay; type: functional; details: SF-268, 48 h
HOP-62 = test: Cytotoxicity against human HOP62 cells after 48 hrs by sulforhodamine B assay; type: functional; details: HOP-62, 48 h
SK-MEL-2 = test: Cytotoxicity against human SK-MEL-2 cells after 48 hrs by sulforhodamine B assay; type: functional; details: SK-MEL-2, 48 h
MOLT-4 = test: Cytotoxicity against human MOLT4 cells after 48 hrs by sulforhodamine B assay; type: functional; details: MOLT-4, 48 h
OVCAR-5 = test: Cytotoxicity against human OVCAR5 cells after 48 hrs by sulforhodamine B assay; type: functional; details: OVCAR-5, 48 h
A498 = test: Cytotoxicity against human A498 cells after 48 hrs by sulforhodamine B assay; type: functional; details: A498, 48 h
K562 = test: Cytotoxicity against human K562 cells after 48 hrs by sulforhodamine B assay; type: functional; details: K562, 48 h
A549 = test: Cytotoxicity against human A549/ATCC cells after 48 hrs by sulforhodamine B assay; type: functional; details: A549, 48 h
HT-29 = test: Cytotoxicity against human HT-29 cells after 48 hrs by sulforhodamine B assay; type: functional; details: HT-29, 48 h
KM12 = test: Cytotoxicity against human KM12 cells after 48 hrs by sulforhodamine B assay; type: functional; details: KM12, 48 h
MDA-MB-468 = test: Cytotoxicity against human MDA-MB-468 cells after 48 hrs by sulforhodamine B assay; type: functional; details: MDA-MB-468, 48 h
HL-60(TB) = test: Cytotoxicity against human HL-60(TB) cells after 48 hrs by sulforhodamine B assay; type: functional; details: HL-60, 48 h
SK-MEL-28 = test: Cytotoxicity against human SK-MEL-28 cells after 48 hrs by sulforhodamine B assay; type: functional; details: SK-MEL-28, 48 h
Malme-3M = test: Cytotoxicity against human MALME-3M cells after 48 hrs by sulforhodamine B assay; type: functional
NCI-H23 = test: Cytotoxicity against human NCI-H23 cells after 48 hrs by sulforhodamine B assay; type: functional; details: NCI-H23, 48 h
OVCAR-4 = test: Cytotoxicity against human OVCAR4 cells after 48 hrs by sulforhodamine B assay; type: functional; details: OVCAR-4, 48 h
T47D = test: Cytotoxicity against human T47D cells after 48 hrs by sulforhodamine B assay; type: functional
SF-539 = test: Cytotoxicity against human SF539 cells after 48 hrs by sulforhodamine B assay; type: functional; details: SF-539, 48 h
SR = test: Cytotoxicity against human SR cells after 48 hrs by sulforhodamine B assay; type: functional
SW-620 = test: Cytotoxicity against human SW620 cells after 48 hrs by sulforhodamine B assay; type: functional; details: SW-620, 48 h
CCRF-CEM = test: Cytotoxicity against human CCRF-CEM cells after 48 hrs by sulforhodamine B assay; type: functional

CCN(CC)c1ccc(/C=N/NC(=O)c2ccccc2Nc2ccnc(C(F)(F)F)c2)c(O)c1
GI50 (SF-295): 251 nM | GI50 (UACC-257): 324 nM | GI50 (LOX IMVI): 79.4 nM | GI50 (SN12C): 240 nM | GI50 (HCT-15): 50.1 nM | GI50 (MDA-MB-231): 195 nM | GI50 (HOP-92): 251 nM | GI50 (SK-OV-3): 174 nM | GI50 (UO-31): 141 nM | GI50 [1]: 871 nM | GI50 (SNB-75): 209 nM | GI50 (IGROV-1): 79.4 nM | GI50 (DU-145): 126 nM | GI50 (TK-10): 166 nM | GI50 (RXF 393): 251 nM | GI50 (NCI-H322M): 100 nM | GI50 (SNB-19): 479 nM | GI50 (ACHN): 79.4 nM | GI50 (SK-MEL-5): 158 nM | GI50 (M14): 129 nM | GI50 (UACC-62): 214 nM | GI50 (U-251): 126 nM | GI50 (MCF7): 288 nM | GI50 (MDA-MB-435): 457 nM | GI50 (OVCAR-8): 209 nM | GI50 (RPMI-8226): 41.7 nM | GI50 (NCI-H460): 67.6 nM | Activity (Mus musculus): Non-toxic | GI50 (786-0): 182 nM | GI50 (NCI-H522): 263 nM | GI50 (HCC 2998): 191 nM | GI50 (BT-549): 347 nM | GI50 (PC-3): 263 nM | GI50 [2]: 158 nM | GI50 (COLO 205): 174 nM | GI50 (HCT-116): 100 nM | GI50 (NCI-H226): 151 nM | GI50 (NCI/ADR-RES): 263 nM | GI50 (CAKI-1): 63.1 nM | GI50 (OVCAR-3): 126 nM | GI50 (SF-268): 69.2 nM | GI50 (HOP-62): 105 nM | GI50 (SK-MEL-2): 501 nM | GI50 (MOLT-4): 79.4 nM | GI50 (OVCAR-5): 200 nM | GI50 (A498): 178 nM | GI50 (K562): 380 nM | GI50 (A549): 309 nM | GI50 (HT-29): 347 nM | GI50 (KM12): 251 nM | GI50 (MDA-MB-468): 151 nM | GI50 (HL-60(TB)): 251 nM | GI50 (SK-MEL-28): 240 nM | GI50 (Malme-3M): 339 nM | GI50 (NCI-H23): 513 nM | GI50 (OVCAR-4): 87.1 nM | GI50 (T47D): 550 nM | GI50 (SF-539): 245 nM | GI50 (SR): 138 nM | GI50 (SW-620): 363 nM | GI50 (CCRF-CEM): 31.6 nM
